≈ marks a conversion by molar mass, not a printed value. Calls of active or inactive are those of the source. No cut-off for these calls is given here.
Tests used:
[1] = target: T1, Epidermal growth factor receptor (Homo sapiens, UniProt P00533); assay: Inhibition of wild-type EGFR autophosphorylation in human LoVo cells incubated for 2 hrs followed by EGF-stiumlation for 10 mins by ELISA; type: cell-based
[2] = Solubility of compound at pH 7.4; type: physicochemical; conditions: buffer
[3] = target: Epidermal growth factor receptor (Homo sapiens, UniProt P00533, EX19DEL); assay: Inhibition of EGFR exon19 deletion activating mutant autophosphorylation in human PC9 cells incubated for 2 hrs by ELISA; type: cell-based, PC-9
[4] = Intrinsic clearance in human liver microsomes; type: ADME; conditions: read-out: CLH
[5] = target: T2, Epidermal growth factor receptor (Homo sapiens, UniProt P00533, L858R/T790M); assay: Inhibition of EGFR T790M/L858R double mutant autophosphorylation in human NCI-H1975 cells incubated for 2 hrs by ELISA; type: cell-based
[6] = target: T2, Epidermal growth factor receptor; assay: Inhibition of recombinant N-terminal GST-tagged human EGFR T790M/L858R double mutant using biotinylated TK substrate incubated for 50 mins by HTRF assay; type: protein assay
Homo sapiens = organism: Homo sapiens; assay: Selectivity ratio of IC50 for wild-type EGFR (unknown origin) to IC50 for recombinant N-terminal GST-tagged human EGFR T790M/L858R double mutant
[7] = test system: Epidermal growth factor receptor (Homo sapiens), P00533 [T790M]; assay: Reversible inhibition of EGFR T790M mutant (unknown origin)
[8] = target: T1, Epidermal growth factor receptor; assay: Inhibition of wild-type human EGFR at 1 uM
[9] = Antitumor activity against human PC9 cells harboring EGFR exon19 deletion activating mutant xenografted in mouse at 50 mg/kg/day, po qd for 7 days; type: functional; conditions: PC-9, po, 168 h, read-out: TGI
NCI-H1975 [10] = assay: Antiproliferative activity against human NCI-H1975 cells assessed as growth inhibition incubated for 72 hrs by SYTOX green nucleic acid stain-based fluorescence analysis; type: functional; conditions: NCI-H1975, 72 h
[11] = Selectivity ratio of GI50 for human Calu6 cells to GI50 for human NCI-H1975 cells; type: ADME, cell-based; conditions: Calu6 cells and NCI-H1975 cells, read-out: RatioGI50
[12] = Antiproliferative activity against human PC9 cells assessed as growth inhibition incubated for 72 hrs by SYTOX green nucleic acid stain-based fluorescence analysis; type: functional; conditions: PC-9, 72 h
[13] = test system: Epidermal growth factor receptor (Homo sapiens), P00533 [L858R,T790M]; assay: Inhibition of human EGFR T790M/L858R double mutant at 1 uM; type: protein assay
[14] = target: T3, Tyrosine-protein kinase JAK3 (Homo sapiens) (UniProt P52333); assay: Inhibition of human JAK3 at 1 uM
T3 sequence (whole entry): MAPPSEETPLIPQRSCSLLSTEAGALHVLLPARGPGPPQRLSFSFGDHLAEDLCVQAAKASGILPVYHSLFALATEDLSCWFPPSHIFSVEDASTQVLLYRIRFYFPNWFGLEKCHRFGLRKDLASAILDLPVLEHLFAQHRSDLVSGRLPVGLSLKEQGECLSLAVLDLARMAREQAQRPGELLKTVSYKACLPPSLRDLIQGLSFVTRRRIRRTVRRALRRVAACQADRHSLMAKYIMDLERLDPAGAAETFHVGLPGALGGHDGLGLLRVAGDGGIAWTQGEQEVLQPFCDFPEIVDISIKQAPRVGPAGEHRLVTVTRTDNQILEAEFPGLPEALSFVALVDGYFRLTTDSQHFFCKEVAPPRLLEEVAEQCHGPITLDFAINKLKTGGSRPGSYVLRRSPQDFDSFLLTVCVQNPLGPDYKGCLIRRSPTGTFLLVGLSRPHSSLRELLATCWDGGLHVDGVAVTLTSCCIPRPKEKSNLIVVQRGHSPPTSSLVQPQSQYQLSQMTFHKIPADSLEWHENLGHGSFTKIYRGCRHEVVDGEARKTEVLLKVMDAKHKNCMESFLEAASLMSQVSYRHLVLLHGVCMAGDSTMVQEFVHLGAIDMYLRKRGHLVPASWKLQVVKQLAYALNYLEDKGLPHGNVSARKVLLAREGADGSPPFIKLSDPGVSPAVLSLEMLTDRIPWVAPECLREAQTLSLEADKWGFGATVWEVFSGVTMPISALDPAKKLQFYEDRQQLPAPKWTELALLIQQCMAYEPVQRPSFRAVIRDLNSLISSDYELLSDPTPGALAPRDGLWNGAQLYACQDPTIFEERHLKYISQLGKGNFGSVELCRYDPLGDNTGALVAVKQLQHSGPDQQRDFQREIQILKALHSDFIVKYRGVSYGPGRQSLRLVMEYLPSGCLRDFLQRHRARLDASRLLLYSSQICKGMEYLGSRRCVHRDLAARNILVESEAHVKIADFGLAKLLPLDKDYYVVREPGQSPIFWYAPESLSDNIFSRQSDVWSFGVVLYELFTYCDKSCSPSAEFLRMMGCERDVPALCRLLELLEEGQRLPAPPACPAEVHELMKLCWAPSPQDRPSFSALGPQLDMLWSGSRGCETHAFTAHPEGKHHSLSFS

[15] = Antiproliferative activity against human Calu6 cells incubated for 72 hrs by SYTOX green nucleic acid stain-based fluorescence analysis; type: cell-based, Calu-6
NCI-H1975 [16] = assay: Antitumor activity against human NCI-H1975 cells harboring EGFR T790M/L858R double mutant xenografted in mouse at 50 mg/kg/day, po qd for 7 days; type: functional; conditions: 168 h, read-out: TGI
Mus musculus = assay: T>EC50 in female nude mouse assessed as time duration during which plasma concentration covers cellular EC50 for EGFR T790M/L858R double mutant autophosphorylation in human NCI-H1975 cells at 50 mg/kg, po; type: ADME, organism-based; conditions: in vivo
A-431 = assay: Antitumor activity against human A431 cells harboring wild-type EGFR xenografted in mouse at 50 mg/kg/day, po qd for 7 days; type: functional; conditions: A-431, po, 168 h, read-out: TGI
[17] = Chemical stability of compound; type: physicochemical

Chain of Epidermal growth factor receptor (Homo sapiens, UniProt P00533, EX19DEL) (P00533 whole entry, looked up, stated change not applied): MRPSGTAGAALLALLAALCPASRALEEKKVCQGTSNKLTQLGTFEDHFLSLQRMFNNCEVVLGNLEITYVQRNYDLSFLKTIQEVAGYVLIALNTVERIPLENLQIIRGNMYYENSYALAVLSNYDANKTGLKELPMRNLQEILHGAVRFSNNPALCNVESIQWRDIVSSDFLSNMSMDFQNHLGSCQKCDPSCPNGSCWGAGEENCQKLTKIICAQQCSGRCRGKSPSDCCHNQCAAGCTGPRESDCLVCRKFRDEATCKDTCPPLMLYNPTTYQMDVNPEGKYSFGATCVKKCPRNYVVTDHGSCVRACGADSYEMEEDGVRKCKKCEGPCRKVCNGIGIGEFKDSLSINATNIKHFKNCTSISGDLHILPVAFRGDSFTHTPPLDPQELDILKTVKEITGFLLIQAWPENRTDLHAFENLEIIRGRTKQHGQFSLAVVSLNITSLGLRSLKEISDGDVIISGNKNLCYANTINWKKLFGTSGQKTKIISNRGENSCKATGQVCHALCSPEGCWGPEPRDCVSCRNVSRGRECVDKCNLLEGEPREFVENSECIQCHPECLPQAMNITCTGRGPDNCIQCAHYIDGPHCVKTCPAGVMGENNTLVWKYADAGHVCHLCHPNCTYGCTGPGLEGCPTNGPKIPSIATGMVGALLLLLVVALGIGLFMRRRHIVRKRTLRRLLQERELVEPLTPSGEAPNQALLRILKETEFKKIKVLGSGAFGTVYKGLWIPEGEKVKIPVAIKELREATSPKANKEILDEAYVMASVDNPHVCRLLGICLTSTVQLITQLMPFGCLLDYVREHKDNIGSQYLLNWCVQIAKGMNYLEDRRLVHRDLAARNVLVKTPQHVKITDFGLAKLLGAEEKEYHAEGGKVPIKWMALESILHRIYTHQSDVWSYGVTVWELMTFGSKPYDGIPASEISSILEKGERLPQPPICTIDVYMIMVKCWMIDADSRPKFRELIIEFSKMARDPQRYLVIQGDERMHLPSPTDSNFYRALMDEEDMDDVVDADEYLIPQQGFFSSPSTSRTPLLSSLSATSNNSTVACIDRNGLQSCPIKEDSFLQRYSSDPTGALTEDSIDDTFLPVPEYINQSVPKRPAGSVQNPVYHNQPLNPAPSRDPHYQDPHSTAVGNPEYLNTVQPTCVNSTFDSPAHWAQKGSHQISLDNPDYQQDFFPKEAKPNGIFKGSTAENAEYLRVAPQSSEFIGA
T1 sequence (P00533 whole entry): as the sequence (P00533 whole entry, looked up, stated change not applied) above
T2 sequence (P00533 25-1210 T790M/L858R limits assumed): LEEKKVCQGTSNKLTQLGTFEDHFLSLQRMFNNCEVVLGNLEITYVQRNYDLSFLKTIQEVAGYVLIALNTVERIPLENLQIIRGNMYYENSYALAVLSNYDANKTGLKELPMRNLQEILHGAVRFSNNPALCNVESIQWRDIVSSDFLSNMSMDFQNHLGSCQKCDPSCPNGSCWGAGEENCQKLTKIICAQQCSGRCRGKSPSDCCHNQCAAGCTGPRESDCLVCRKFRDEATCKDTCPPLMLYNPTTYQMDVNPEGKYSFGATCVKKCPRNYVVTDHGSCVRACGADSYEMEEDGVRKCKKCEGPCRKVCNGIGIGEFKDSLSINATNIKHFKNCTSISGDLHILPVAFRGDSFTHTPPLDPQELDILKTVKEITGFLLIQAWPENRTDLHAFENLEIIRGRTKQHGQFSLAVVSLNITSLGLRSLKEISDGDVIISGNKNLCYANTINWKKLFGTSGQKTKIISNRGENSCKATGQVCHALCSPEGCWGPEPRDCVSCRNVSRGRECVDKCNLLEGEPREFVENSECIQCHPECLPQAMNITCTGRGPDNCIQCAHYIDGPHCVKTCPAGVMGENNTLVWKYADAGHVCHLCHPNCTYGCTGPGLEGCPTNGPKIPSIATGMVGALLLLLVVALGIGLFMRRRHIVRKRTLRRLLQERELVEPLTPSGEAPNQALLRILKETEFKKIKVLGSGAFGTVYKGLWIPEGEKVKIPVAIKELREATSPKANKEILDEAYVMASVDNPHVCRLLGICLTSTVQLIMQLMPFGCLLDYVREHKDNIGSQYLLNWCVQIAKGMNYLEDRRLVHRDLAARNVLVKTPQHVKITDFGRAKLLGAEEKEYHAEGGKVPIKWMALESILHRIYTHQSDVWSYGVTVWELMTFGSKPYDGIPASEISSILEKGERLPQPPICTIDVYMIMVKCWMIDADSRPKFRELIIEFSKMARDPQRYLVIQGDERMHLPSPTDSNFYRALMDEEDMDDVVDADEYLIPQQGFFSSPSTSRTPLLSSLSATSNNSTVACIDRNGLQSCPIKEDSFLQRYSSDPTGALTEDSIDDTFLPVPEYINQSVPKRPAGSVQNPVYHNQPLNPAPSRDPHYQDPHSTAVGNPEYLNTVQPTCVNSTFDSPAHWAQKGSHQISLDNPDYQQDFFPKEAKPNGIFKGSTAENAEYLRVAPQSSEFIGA
Chain of Epidermal growth factor receptor (Homo sapiens), P00533 [T790M] (P00533 whole entry T790M): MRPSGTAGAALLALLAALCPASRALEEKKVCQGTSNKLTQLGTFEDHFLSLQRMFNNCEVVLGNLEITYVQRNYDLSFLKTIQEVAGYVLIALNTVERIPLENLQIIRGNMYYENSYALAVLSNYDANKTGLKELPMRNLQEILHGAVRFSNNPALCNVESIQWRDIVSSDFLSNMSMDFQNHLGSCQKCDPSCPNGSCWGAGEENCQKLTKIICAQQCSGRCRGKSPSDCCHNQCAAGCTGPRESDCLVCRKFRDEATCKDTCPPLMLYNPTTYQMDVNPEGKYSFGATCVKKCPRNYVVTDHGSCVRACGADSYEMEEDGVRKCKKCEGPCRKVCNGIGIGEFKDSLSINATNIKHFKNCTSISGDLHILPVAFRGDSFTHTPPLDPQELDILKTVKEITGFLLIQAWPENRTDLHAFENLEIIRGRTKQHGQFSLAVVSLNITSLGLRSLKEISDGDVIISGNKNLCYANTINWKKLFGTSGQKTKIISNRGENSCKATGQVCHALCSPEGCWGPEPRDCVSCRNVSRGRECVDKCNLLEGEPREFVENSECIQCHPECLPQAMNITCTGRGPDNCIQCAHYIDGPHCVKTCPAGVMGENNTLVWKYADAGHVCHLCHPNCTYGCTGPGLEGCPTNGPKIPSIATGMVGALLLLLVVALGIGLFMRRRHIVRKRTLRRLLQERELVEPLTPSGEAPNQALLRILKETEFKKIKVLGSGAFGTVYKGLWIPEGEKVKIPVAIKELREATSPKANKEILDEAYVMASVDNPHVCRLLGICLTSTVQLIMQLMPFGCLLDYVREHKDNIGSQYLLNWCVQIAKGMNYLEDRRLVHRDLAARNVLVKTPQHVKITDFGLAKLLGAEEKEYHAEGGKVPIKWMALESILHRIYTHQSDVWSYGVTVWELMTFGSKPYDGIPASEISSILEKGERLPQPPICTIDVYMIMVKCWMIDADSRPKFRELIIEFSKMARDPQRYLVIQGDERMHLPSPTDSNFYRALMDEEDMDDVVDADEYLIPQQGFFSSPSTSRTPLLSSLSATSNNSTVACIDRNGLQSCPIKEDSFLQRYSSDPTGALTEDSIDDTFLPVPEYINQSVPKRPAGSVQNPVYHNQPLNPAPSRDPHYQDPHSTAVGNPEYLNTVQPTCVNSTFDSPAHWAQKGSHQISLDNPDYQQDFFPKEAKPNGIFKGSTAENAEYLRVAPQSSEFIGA

Structure (SMILES) | EC50 [1] [µM] | solubility [2] [µM] | EC50 [3] [nM] | microsomal CLint [4] [µL/min/mg] | EC50 [5] [nM] | other results
C=CC(=O)Nc1cccc(-n2c(-c3nc(-c4cnn(C5CCN(C(=O)CO)CC5)c4)cnc3N)nc3ccccc32)c1 | 3 | < 10 | 18 | > 300 | 24 | 
C=CC(=O)Nc1cccc(-n2c(-c3nc(-c4cnn(C5CCN(CC)CC5)c4)cnc3N)nc3ccccc32)c1 | 1.96 | < 10 | 16 | 197 | 9 | 
C=CC(=O)Nc1ccc(-n2c(-c3nc(-c4cnn(C5CCN(C)CC5)c4)cnc3N)nc3ccccc32)cc1 | 3.38 |  | 120 |  | 550 | 
C=CC(=O)Nc1cccc(-n2c(-c3nc(-c4cnn(C5CCN(C)CC5)c4)cnc3N)nc3cnccc32)c1 | 4.39 | 300 (≈ 156 µg/mL) | 10 | 169 | 18 | 
C=CC(=O)Nc1cccc(-n2c(-c3nc(-c4cnn(C5CCN(C(C)C)CC5)c4)cnc3N)nc3ccccc32)c1 | 0.76 | < 10 | 9 | 37 | 14 | 
CC(=O)Nc1cccc(-n2c(-c3nc(-c4cnn(C5CCN(C)CC5)c4)cnc3N)nc3ccccc32)c1 | > 30 |  | 8010 |  | > 30000 | 
C=CC(=O)Nc1cccc(-n2c(-c3nc(-c4cnn(CCN5CCOCC5)c4)cnc3N)nc3ccccc32)c1 | 5 | < 10 | 22 | 298 | 24 | 
C=CC(=O)Nc1cccc(-n2c(-c3nc(-c4cnn(C)c4)cnc3N)nc3ccccc32)c1 | 1.07 | < 10 | 9 | 24 | 10 | 
C=CC(=O)Nc1ccc(Cn2c(-c3nc(-c4cnn(C5CCN(C)CC5)c4)cnc3N)nc3ccccc32)cc1 | > 30 |  | 5060 |  | 1780 | 
C=C(C)C(=O)Nc1cccc(-n2c(-c3nc(-c4cnn(C5CCN(C)CC5)c4)cnc3N)nc3ccccc32)c1 | > 30 |  | 9130 |  | > 20000 | 
C=CC(=O)Nc1ccc(F)c(-n2c(-c3nc(-c4cnn(C5CCN(C)CC5)c4)cnc3N)nc3ccccc32)c1 | 4.39 | < 10 | 43 |  | 73 | 
C=CC(=O)Nc1cc(-n2c(-c3nc(-c4cnn(C5CCN(C)CC5)c4)cnc3N)nc3ccccc32)ccc1OC | > 20 | < 10 | 370 |  | 1340 | 
C=CC(=O)Nc1cccc(-n2c(-c3nc(-c4cnn(CCO)c4)cnc3N)nc3ccccc32)c1 | 2.25 | < 10 | 8 | 54 | 12 | 
C=CC(=O)Nc1cccc(-n2c(-c3nc(-c4cnn(C5CCN(C(=O)CN(C)C)CC5)c4)cnc3N)nc3ccccc32)c1 | 1.14 | 18 (≈ 10.6 µg/mL) | 13 | 66 | 15 | 
C=CC(=O)NCCCn1c(-c2nc(-c3cnn(C4CCN(C)CC4)c3)cnc2N)nc2ccccc21 |  |  |  |  | 1710 | IC50 [6]: 200 nM
C=CC(=O)N(C)c1cccc(-n2c(-c3nc(-c4cnn(C5CCN(C)CC5)c4)cnc3N)nc3ccccc32)c1 | 10.9 |  | 250 |  | 390 | 
C=CC(=O)Nc1cccc(-n2c(-c3nc(-c4cnn(CCN5CCN(C)CC5)c4)cnc3N)nc3ccccc32)c1 | 2.31 | 30 (≈ 16.5 µg/mL) | 15 | 60 | 15 | 
C=CC(=O)Nc1cccc(-n2c(-c3nc(-c4cnn(C5CCN(C)CC5)c4)cnc3N)nc3ccccc32)c1F | 2.06 | < 10 | 26 |  | 23 | 
C=CC(=O)Nc1cccc(-n2c(-c3nc(-c4cnn(C5CCN(C(C)=O)CC5)c4)cnc3N)nc3ccccc32)c1 | 3.51 | < 10 | 23 | > 300 | 22 | 
CCn1c(-c2nc(-c3cnn(C4CCN(C)CC4)c3)cnc2N)nc2ccccc21 |  |  |  |  |  | Ratio IC50 (Homo sapiens): 5; inhibition [7]: Active; IC50 [6]: 50 nM
C=CC(=O)Nc1cccc(-n2c(-c3nc(-c4cnn(C5CCN(C)CC5)c4)cnc3N)nc3ccccc32)c1 | 0.98 | < 10 | 9 | 120 | 14 | inhibition [8]: > 75%; inhibition in vivo at 50 mg/kg/day [9]: 238%; GI50 (NCI-H1975 [10]): 25 nM; selectivity ratio [11]: > 60; GI50 [12]: 16 nM; inhibition [13]: > 75%; inhibition [14]: > 75%; GI50 at 72 h [15]: 1700 nM; inhibition in vivo at 50 mg/kg/day (NCI-H1975 [16]): 117%; Time (Mus musculus): 6 h; inhibition in vivo at 50 mg/kg/day (A-431): 21%; IC50 [6]: < 1 nM
C=CC(=O)NCCn1c(-c2nc(-c3cnn(C4CCN(C)CC4)c3)cnc2N)nc2ccccc21 |  |  |  |  | 14900 | IC50 [6]: 2200 nM
C=CC(=O)Nc1ccccc1Cn1c(-c2nc(-c3cnn(C4CCN(C)CC4)c3)cnc2N)nc2ccccc21 | 0.42 | 35 (≈ 18.7 µg/mL) | 3 |  | 7 | Stability [17]: Unstable
C=CC(=O)Nc1cccc(Cn2c(-c3nc(-c4cnn(C5CCN(C)CC5)c4)cnc3N)nc3ccccc32)c1 | > 25 |  | 280 |  | 360 | 
CN1CCC(n2cc(-c3cnc(N)c(-c4nc5ccccc5[nH]4)n3)cn2)CC1 |  |  |  |  |  | Ratio IC50 (Homo sapiens): 5; inhibition [7]: Active; IC50 [6]: 290 nM
C=CC(=O)Nc1cccc(-n2c(-c3nc(-c4cnn(C5CCN(C)CC5)c4)cnc3N)nc3ccncc32)c1 | > 15 | 540 (≈ 281 µg/mL) | 100 | 68 | 150 | 

— ChEMBL document CHEMBL3813644, “Utilization of Structure-Based Design to Identify Novel, Irreversible Inhibitors of EGFR Harboring the T790M Mutation” (ACS Med Chem Lett, 2016)
